Patent publication US10011631B2, “Stapled helical peptides and methods of synthesis” (The University of Hong Kong, priority 2015, dated 2018)

Biological target: MAGUK GK domain
Assay: ITC binding to the MAGUK GK domain
Conditions: from ITC studies

binding affinity with the GK domain: no binding affinity
Substance: Ala-Arg-Arg-S5-Glu-Tyr-Leu-S5-Ala-Ile-Gln [compound 1]
